From patent US20260183269A1, “PHARMACEUTICAL COMPOSITION FOR PREVENTION OR TREATMENT OF DRUG-RELATED PEPTIC ULCER COMPRISING ZASTAPRAZAN OR PHARMACEUTICALLY ACCEPTABLE SALT THEREOF” (priority 2022, published 2026) come the findings set out here.

Data set [1] is described as follows: Clinical PK interaction, PART 2: zastaprazan and meloxicam in healthy subjects. The class given is in vivo, human (healthy subjects). Here is the method: (§1) Zastaprazan may be used not only for acid-related gastric diseases but also for preventing gastric damage caused by NSAIDs.
(§2) • JP-1366, 20 mg 2 capsules (zastaprazan citrate salt 40 mg)
• Mobic capsule 15 mg (meloxicam 15 mg)
Subjects who volunteered for PART 2 were assigned a subject number on the day before the first clinical trial drug administration (−1 d) of Period 1, and then administered two JP-1366 capsules on 1 d to 5 d of Period 1, administered one meloxicam capsule on 15 d to 19 d of Period 2, and co-administered two JP-1366 capsules and one meloxicam capsule on 22 d to 26 d of Period 3. Blood samples were collected from each subject at a designated time for the PK evaluation of the clinical trial drug, and all subjects underwent safety evaluation according to the designated schedule.
(§3) Blood samples were collected at designated times for the PK evaluation of zastaprazan (JP-1366).

Data set [2] relates to rat gastric damage model induced by naproxen. In words: Antiulcer activity in naproxen-induced acute peptic ulcer (gastric damage) rat model. Type of data set: in vivo, Male Sprague-Dawley (SD) rat. Here is the method: [table] […] The dose for each individual was converted based on the body weight before administration, and is administered orally in a dosage of 5 ml per kg of body weight. […] Administration frequency and administration period: Once a day for five days (a total of 5 times) After the test, the gastric damage by the test substance was evaluated using the ulcer index. […] The removed stomach was incised along the greater curvature, the contents are removed, and the incised stomach was washed cleanly with saline solution, spread out well with a cotton swab, fixed with pins, and then photographed. The gastric damage area and the total stomach area were measured from the photographed stomach using an image program (Leica Application Suite V4), and the ulcer index was calculated as Ulcer index (%)=Damage area (mm^2)/Total area (mm^2)×100. The experimental results were statistically analyzed through Mann-Whitney analysis using a commercial statistical processing program (IBM SPSS Statistics version 25.0).

Another data set is described as follows: clinical. Type of data set: in vivo, human (healthy subjects). As to the method:
as §2
Blood samples were collected from each subject at a designated time for the PK evaluation of the clinical trial drug, and all subjects underwent safety evaluation according to the designated schedule.
as §3

Data set [3] can be described thus: Clinical PK interaction, PART 1: zastaprazan and aceclofenac in healthy subjects. Type of data set: in vivo, human (healthy subjects). The settings on record: for Cmax / AUC(0-t): human, oral; for Cmax: n = 22, plasma, mean ± SD; for AUC(0-t): plasma, n = 22, mean ± SD. As to the method: as §1, §2
• Aertal tablet (aceclofenac 100 mg)
Subjects who volunteered for PART 1 were assigned a subject number on the day before the first clinical trial drug administration (−1 d) of Period 1, and then administered one aceclofenac tablet on 1 d of Period 1, administered two JP-1366 capsules on 4 d to 8 d of Period 2, and co-administered two JP-1366 capsules and one aceclofenac tablet on 9 d of Period 3. Blood samples were collected from each subject at a designated time for the PK evaluation of the clinical trial drug, and all subjects underwent safety evaluation according to the designated schedule.
as §3

Data set [4] can be described thus: Safety evaluation of zastaprazan with aceclofenac, meloxicam, or naproxen in healthy subjects. The settings on record: zastaprazan 40 mg alone and co-administered with aceclofenac 100 mg, meloxicam 15 mg or naproxen 500 mg. The class given is in vivo, human (healthy subjects). The text has this:
Zastaprazan may be used not only for acid-related gastric diseases but also for preventing gastric damage caused by NSAIDs. […] Blood samples were collected from each subject at a designated time for the PK evaluation of the clinical trial drug, and all subjects underwent safety evaluation according to the designated schedule. All subjects who completed the clinical trial underwent a post-study visit on 14 d to 20 d, including vital sign measurement, physical examination, adverse reaction check, confirmation of prior/concurrent medication, clinical laboratory tests, and electrocardiography. […] Blood samples were collected from each subject at a designated time for the PK evaluation of the clinical trial drug, and all subjects underwent safety evaluation according to the designated schedule. All subjects who completed the clinical trial underwent a post-study visit on 31 d to 37 d, including vital sign measurement, physical examination, adverse reaction check, confirmation of prior/concurrent medication, clinical laboratory tests, and electrocardiography. […] Blood samples were collected from each subject at a designated time for the PK evaluation of the clinical trial drug, and all subjects underwent safety evaluation according to the designated schedule. […]

For the molecule `Cc1cnc(NC(=O)C2=C(O)c3ccccc3S(=O)(=O)N2C)s1` [Meloxicam, meloxicam, reference compound], the AUC(0-t) came to 41800 ± 16400 ng·h/mL in data set [1] (human, in vivo, oral, M (meloxicam 15 mg alone), n = 22, mean ± SD, read-out: meloxicam AUCT, SS); 44000 ± 18800 ng·h/mL in data set [1] (human, in vivo, oral, Z + M (zastaprazan 40 mg and meloxicam 15 mg), n = 22, mean ± SD, read-out: meloxicam AUCT, SS). The Cmax worked out at 2480 ± 880 ng/mL in data set [1] (human, oral, M (meloxicam 15 mg alone), n = 22, plasma, mean ± SD, read-out: meloxicam Cmax, SS); 2640 ± 920 ng/mL in data set [1] (human, oral, Z + M (zastaprazan 40 mg and meloxicam 15 mg), n = 22, plasma, mean ± SD, read-out: meloxicam Cmax, SS).
For the molecule `Cc1cccc(C)c1CNc1cc(C(=O)N2CCC2)cn2c(C)c(C)nc12.O=C(O)CC(O)(CC(=O)O)C(=O)O` [Zastaprazan, azetidin-1-yl{8-[(2,6-dimethylbenzyl)amino]-2,3-dimethylimidazo[1,2-a]pyridin-6-yl}methanone citrate salt], the “ulcer area (antiulcer activity), FIG. 1” value in data set [2] (JP-1366 2 mg/kg oral once a day for five days with naproxen 40 mg/kg, non-fasting rats, stomach removed 4 h after last naproxen) is given as “rapid decrease in the ulcer area”. Moreover, the “antiulcer efficacy compared with esomeprazole” value in data set [2] (JP-1366 2 mg/kg vs esomeprazole 2 mg/kg oral, once a day for five days with naproxen 40 mg/kg) is given as “superior to that of the control substance, esomeprazole”. For the same molecule, the AUC(0-t) worked out at 1380 ± 695 ng·h/mL in “clinical” (human, in vivo, oral, Z (zastaprazan 40 mg alone), n = 22, mean ± SD, read-out: zastaprazan AUCT, SS); 1540 ± 724 ng·h/mL in data set [3] (Z (zastaprazan 40 mg alone), read-out: zastaprazan AUCT, SS); 1440 ± 627 ng·h/mL in data set [3] (Z + A (zastaprazan 40 mg and aceclofenac 100 mg), read-out: zastaprazan AUCT, SS); 1120 ± 534 ng·h/mL in data set [1] (human, in vivo, 40 mg). The peak concentration (Cmax) in the data set “clinical” (human, oral, Z (zastaprazan 40 mg alone), n = 22, plasma, mean ± SD, read-out: zastaprazan Cmax, SS) stood at 264 ± 88.5 ng/mL; in data set [3] (Z (zastaprazan 40 mg alone), read-out: zastaprazan Cmax, SS) it was 242 ± 84 ng/mL; in data set [1] (human, in vivo, 40 mg), 237 ± 72.8 ng/mL. Moreover, in the data set “clinical” (summary of PART 3), the “PK interaction between zastaprazan and naproxen” value is “No clinically significant PK interactions”. Besides, the “geometric mean ratio (GMR) [90% CI] of zastaprazan AUCT,SS” value in data set [3] (Z+A to Z) was 0.9490 (0.9096 to 0.9902). Further, the “geometric mean ratio (GMR) [90% CI] of zastaprazan Cmax,SS” value in data set [3] (Z+A to Z) is recorded as 1.0868 (0.9554 to 1.2362). In addition, the “PK interaction between zastaprazan and aceclofenac” value in data set [3] (summary of PART 1) is on record as “No clinically significant PK interactions”. Moreover, in data set [1] (human, in vivo), the “GMR [90% CI] of zastaprazan AUCT,SS” value is 1.3332 (1.1494 to 1.5463). The “PK interaction between zastaprazan and meloxicam” value in data set [1] (summary of PART 2) was “No clinically significant PK interactions”. Further, in data set [4], the safety result was “no safety concerns”.
`O=C(O)COC(=O)Cc1ccccc1Nc1c(Cl)cccc1Cl` [Aceclofenac, aceclofenac, reference compound]: the Cmax in data set [3] (A (aceclofenac 100 mg alone), read-out: aceclofenac Cmax, SS) stood at 10100 ± 3160 ng/mL; in data set [3] (Z + A (zastaprazan 40 mg and aceclofenac 100 mg), read-out: aceclofenac Cmax, SS), 11800 ± 2560 ng/mL. Further, the AUC(0-t) is 20400 ± 4870 ng·h/mL in data set [3] (A (aceclofenac 100 mg alone), read-out: aceclofenac AUCT, SS); 20800 ± 3840 ng·h/mL in data set [3] (Z + A (zastaprazan 40 mg and aceclofenac 100 mg), read-out: aceclofenac AUCT, SS).
